Molecular target: T1, mtIF2 (in mtPIC-2, mtSSU-mtIF2-mtIF3) (Homo sapiens, UniProt P46199)
T1 construct: mature mtIF2 residues 38-727, codon-optimized, pET-24b, E. coli Rosetta 2, Ni resin (His-tag implied) and gel filtration; with Translation initiation factor IF-3, mitochondrial
Experiment: cryo-EM structure
Assay type: binding
Conditions: GTPase G-domain site, preactive state; mtIF2 (1 uM) preincubated with 2.5 mM GDPNP; mtSSU-mtIF3 bound; 25 mM HEPES-KOH pH 7.5, 5 mM Mg(OAc)2, 100 mM KCl; 3.1 A map

Structure (SMILES): Nc1nc2c(ncn2[C@@H]2O[C@H](COP(=O)(O)OP(=O)(O)NP(=O)(O)O)[C@@H](O)[C@H]2O)c(=O)[nH]1 [GDPNP]
- cryo-EM structure: The G-domain-bound GDPNP is found in close proximity to the mtIF2-domain III
